Laboratory results reported in the supplement of paper PMC11061612.

Legend:
COLO-829 (Melanoma) [1] = assay: combination Emax (second highest fraction inhibited in the dose matrix, 72 h); higher = more inhibition; extreme values may be limits of the assay
Summary of the method: (§1)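 Cell lines grown in DMEM/F12 or RPMI with 10% FBS were plated in 1536-well plates and held 24 hours at 37°C, 5% CO2 before 72 hours of exposure to two-drug dose matrices, with DMSO typically at 0.2%. CellTiter-Glo 2.0 luminescence gave viability, which was converted to inhibition. Vehicle wells were set to 0 and blank wells to 1. Combination Emax is the second-highest inhibition in the matrix, and Bliss excess is the observed combination effect minus the expected EA + EB − EA·EB, where EA and EB are the single-agent effects.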

[2] = system: SW626 (Colorectal Carcinoma); assay: as above
Summary of the method: as §1

[3] = system: HCC-15 (Squamous Cell Lung Carcinoma); assay: as above
Summary of the method: as §1

[4] = system: KYSE-410 (Esophageal Squamous Cell Carcinoma); assay: as above
Summary of the method: as §1

[5] = system: LB771-HNC (Head and Neck Carcinoma); assay: as above
Summary of the method: as §1

[6] = system: KARPAS-231 (B-Cell Non-Hodgkin's Lymphoma); assay: as above
Summary of the method: as §1

[7] = system: TE-4 (Esophageal Squamous Cell Carcinoma); assay: as above
Summary of the method: as §1

[8] = system: UMC-11 (Other Solid Carcinomas); assay: as above
Summary of the method: as §1

[9] = system: CAL-51 (Breast Carcinoma); assay: as above
Summary of the method: as §1

[10] = system: MHH-PREB-1 (B-Cell Non-Hodgkin's Lymphoma); assay: as above
Summary of the method: as §1

[11] = system: NCI-H747 (Colorectal Carcinoma); assay: as above
Summary of the method: as §1

[12] = system: OVCAR-8 (Ovarian Carcinoma); assay: as above
Summary of the method: as §1

[13] = system: 639-V (Bladder Carcinoma); assay: as above
Summary of the method: as §1

COLO-829 (Melanoma) [14] = assay: Bliss excess, mean over the matrix (fraction); higher = more synergy
Summary of the method: as §1

[15] = system: SW626 (Colorectal Carcinoma); assay: as above
Summary of the method: as §1

[16] = system: HCC-15 (Squamous Cell Lung Carcinoma); assay: as above
Summary of the method: as §1

[17] = system: KYSE-410 (Esophageal Squamous Cell Carcinoma); assay: as above
Summary of the method: as §1

[18] = system: LB771-HNC (Head and Neck Carcinoma); assay: as above
Summary of the method: as §1

[19] = system: KARPAS-231 (B-Cell Non-Hodgkin's Lymphoma); assay: as above
Summary of the method: as §1

[20] = system: TE-4 (Esophageal Squamous Cell Carcinoma); assay: as above
Summary of the method: as §1

[21] = system: UMC-11 (Other Solid Carcinomas); assay: as above
Summary of the method: as §1

[22] = system: CAL-51 (Breast Carcinoma); assay: as above
Summary of the method: as §1

[23] = system: MHH-PREB-1 (B-Cell Non-Hodgkin's Lymphoma); assay: as above
Summary of the method: as §1

[24] = system: NCI-H747 (Colorectal Carcinoma); assay: as above
Summary of the method: as §1

[25] = system: OVCAR-8 (Ovarian Carcinoma); assay: as above
Summary of the method: as §1

[26] = system: 639-V (Bladder Carcinoma); assay: as above
Summary of the method: as §1
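Throughout, for Bliss excess, mean over the matrix: after 72 h of two-drug dosing.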

## COc1nnc2ccc(N3CCC(c4ccc(OCCN5CCN(C)C(=O)[C@H]5C)cc4)CC3)nn12 [AZD5153] + CN(CC[C@H](CSC1=CC=CC=C1)NC2=C(C=C(C=C2)S(=O)(=O)NC(=O)C3=CC=C(C=C3)N4CCC(CC4)[C@H](C5=CC=CC=C5C6=CC=C(C=C6)Cl)O)S(=O)(=O)C(F)(F)F)CCO [AZD4320] (first compound max 1 µM, 7x7, partner max 1 µM)
COLO-829 (Melanoma) [1]
  combination Emax: 0.143
[2]
  combination Emax: 0.777
[3]
  combination Emax: 0.994
[4]
  combination Emax: 0.259
[5]
  combination Emax: 0.524
[6]
  combination Emax: 1
[7]
  combination Emax: 0.336
[8]
  combination Emax: 0.848
[9]
  combination Emax: 0.843
[10]
  combination Emax: 0.47
[11]
  combination Emax: 0.728
[12]
  combination Emax: 0.733
[13]
  combination Emax: 0.606
COLO-829 (Melanoma) [14]
  Bliss excess: -0.0466
[15]
  Bliss excess: 0.0477
[16]
  Bliss excess: -0.0023
[17]
  Bliss excess: 0.0046
[18]
  Bliss excess: 0.0273
[19]
  Bliss excess: -0.159
[20]
  Bliss excess: 0.0449
[21]
  Bliss excess: 0.0086
[22]
  Bliss excess: 0.0267
[23]
  Bliss excess: 0.0343
[24]
  Bliss excess: -0.0055
[25]
  Bliss excess: 0.0081
[26]
  Bliss excess: 0.034

## CC(=O)c1c(C)c2cnc(Nc3ccc(N4CCNCC4)cn3)nc2n(C2CCCC2)c1=O [Palbociclib] + CN(CC[C@H](CSC1=CC=CC=C1)NC2=C(C=C(C=C2)S(=O)(=O)NC(=O)C3=CC=C(C=C3)N4CCC(CC4)[C@H](C5=CC=CC=C5C6=CC=C(C=C6)Cl)O)S(=O)(=O)C(F)(F)F)CCO [AZD4320] (first compound max 10 µM, 7x7, partner max 1 µM)
COLO-829 (Melanoma) [1]
  combination Emax: 0.33
[2]
  combination Emax: 0.662
[3]
  combination Emax: 0.982
[4]
  combination Emax: 0.41
[5]
  combination Emax: 0.206
[6]
  combination Emax: 0.98
[7]
  combination Emax: 0.341
[8]
  combination Emax: 0.631
[9]
  combination Emax: 0.479
[10]
  combination Emax: 0.492
[11]
  combination Emax: 0.555
[12]
  combination Emax: 0.173
[13]
  combination Emax: 0.198
COLO-829 (Melanoma) [14]
  Bliss excess: -0.117
[15]
  Bliss excess: -0.0921
[16]
  Bliss excess: -0.0553
[17]
  Bliss excess: -0.0667
[18]
  Bliss excess: -0.0584
[19]
  Bliss excess: -0.0645
[20]
  Bliss excess: 0.001
[21]
  Bliss excess: 0.0057
[22]
  Bliss excess: -0.123
[23]
  Bliss excess: -0.041
[24]
  Bliss excess: -0.0425
[25]
  Bliss excess: -0.0261
[26]
  Bliss excess: -0.124

## C[C@@H](c1ccc2nccn2c1)n1nnc2ncc(-c3cnn(C)c3)nc21 [Savolitinib] + CN(CC[C@H](CSC1=CC=CC=C1)NC2=C(C=C(C=C2)S(=O)(=O)NC(=O)C3=CC=C(C=C3)N4CCC(CC4)[C@H](C5=CC=CC=C5C6=CC=C(C=C6)Cl)O)S(=O)(=O)C(F)(F)F)CCO [AZD4320] (first compound max 1 µM, 7x7, partner max 1 µM)
COLO-829 (Melanoma) [1]
  combination Emax: 0.278
[2]
  combination Emax: 0.582
[3]
  combination Emax: 0.916
[4]
  combination Emax: 0.174
[5]
  combination Emax: 0.154
[6]
  combination Emax: 0.907
[7]
  combination Emax: 0.145
[8]
  combination Emax: 0.401
[9]
  combination Emax: 0.207
[10]
  combination Emax: 0.139
[11]
  combination Emax: 0.208
[12]
  combination Emax: 0.0738
[13]
  combination Emax: 0.172
COLO-829 (Melanoma) [14]
  Bliss excess: -0.0397
[15]
  Bliss excess: -0.108
[16]
  Bliss excess: -0.0203
[17]
  Bliss excess: -0.0588
[18]
  Bliss excess: -0.042
[19]
  Bliss excess: -0.0299
[20]
  Bliss excess: -0.0244
[21]
  Bliss excess: 0.0211
[22]
  Bliss excess: -0.0375
[23]
  Bliss excess: -0.0481
[24]
  Bliss excess: -0.0808
[25]
  Bliss excess: -0.0373
[26]
  Bliss excess: -0.0957
